# Measured values reported in publication PMC7450630 (ACS Omega, 2020).
# Target: PD-L1 (Homo sapiens, UniProt Q9NZQ7)
# Assay: HTRF PD-1/PD-L1 binding assay
# Sequence of PD-L1 (Q15116 25-288): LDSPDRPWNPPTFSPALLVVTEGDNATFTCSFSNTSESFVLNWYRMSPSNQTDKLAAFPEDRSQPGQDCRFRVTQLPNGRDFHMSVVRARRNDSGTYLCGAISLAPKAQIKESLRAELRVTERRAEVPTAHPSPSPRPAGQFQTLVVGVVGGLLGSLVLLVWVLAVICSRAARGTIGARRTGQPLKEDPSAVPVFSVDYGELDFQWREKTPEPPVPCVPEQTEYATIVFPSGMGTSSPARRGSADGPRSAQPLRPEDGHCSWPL
# Sequence of PD-L1 (Q9NZQ7 19-290): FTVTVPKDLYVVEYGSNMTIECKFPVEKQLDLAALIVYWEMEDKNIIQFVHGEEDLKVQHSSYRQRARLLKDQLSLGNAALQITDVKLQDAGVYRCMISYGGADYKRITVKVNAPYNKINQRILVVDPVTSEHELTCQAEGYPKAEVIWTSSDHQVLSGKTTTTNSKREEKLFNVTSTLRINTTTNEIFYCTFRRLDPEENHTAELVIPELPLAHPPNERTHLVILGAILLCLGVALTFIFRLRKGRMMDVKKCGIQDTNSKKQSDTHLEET
row,SMILES,IC50 [µM]
1,"Cc1c(COc2ccc(CN3CCNCC3)c(OCc3cn(-c4cccc(C#N)c4)nn3)c2)cccc1-c1ccccc1 [compound 7, 3-(4-((5-((2-Methylbiphenyl-3-yl)methoxy)-2-(piperazin-1-ylmethyl)phenoxy)methyl)-1H-1,2,3-triazol-1-yl)benzonitrile]",8.52
2,"Cc1c(COc2ccc(CN3CCN(C)CC3)c(OCc3cn(-c4cccc(C#N)c4)nn3)c2)cccc1-c1ccccc1 [8a, 3-(4-((5-((2-Methylbiphenyl-3-yl)methoxy)-2-((4-methylpiperazin-1yl)methyl)phenoxy)methyl)-1H-1,2,3-triazol-1-yl)benzonitrile]",14.1
